Laboratory results reported in DBAASP.
≈ marks a conversion by molar mass, not a printed value.

Legend:
Assay in all cases: ≥ marks a high value that may be exact or a test limit, other limits are often not marked, values filed in µg/mL are converted to µM
Bacillus cereus = system: Bacillus cereus
Escherichia coli = system: Escherichia coli
Pseudomonas aeruginosa = system: Pseudomonas aeruginosa
Staphylococcus aureus = system: Staphylococcus aureus
[1] = system: Staphylococcus aureus ATCC 25923
Escherichia coli UB1005 = system: Escherichia coli UB1005
[2] = system: Pseudomonas aeruginosa PAO1

Structure (SMILES): CC[C@H](C)[C@H](NC(=O)[C@@H](NC(=O)[C@H](C)NC(=O)[C@@H]1CCCN1C(=O)[C@@H](NC(=O)[C@@H](NC(=O)[C@H](CCCCN)NC(=O)[C@H](CO)NC(=O)[C@H](C)NC(=O)[C@H](CC(C)C)NC(=O)[C@H](CO)NC(=O)CNC(=O)[C@@H](NC(=O)[C@@H](NC(=O)CNC(=O)[C@@H](N)CC(C)C)C(C)C)C(C)C)C(C)C)C(C)C)C(C)C)C(=O)N[C@@H](CO)C(=O)N[C@@H](CCCCN)C(=O)N[C@H](C(=O)N[C@@H](CCCCN)C(=O)O)C(C)C [LGVVGSLASKVVPAVISKVK]
- MIC (Bacillus cereus): ≥ 131 µM
- MIC (Escherichia coli): > 131 µM

Structure (SMILES): CC[C@H](C)[C@H](NC(=O)[C@@H](NC(=O)[C@H](C)NC(=O)[C@@H]1CCCN1C(=O)[C@@H](NC(=O)[C@@H](NC(=O)[C@H](CCCCN)NC(=O)[C@H](CO)NC(=O)[C@H](C)NC(=O)[C@H](CC(C)C)NC(=O)[C@H](CCCN=C(N)N)NC(=O)CNC(=O)[C@H](CC(C)C)NC(=O)[C@H](C)NC(=O)[C@@H](N)CO)C(C)C)C(C)C)C(C)C)C(=O)NCC(=O)N[C@@H](CCCCN)C(=O)N[C@H](C(=O)N[C@H](C(=O)N[C@H](C(=O)O)[C@@H](C)O)[C@@H](C)O)C(C)C [SALGRLASKVVPAVIGKVTT]
- MIC (Bacillus cereus): ≥ 130 µM
- MIC (Escherichia coli): > 130 µM

Structure (SMILES): CC[C@H](C)[C@H](NC(=O)[C@H](Cc1ccccc1)NC(=O)[C@H](CO)NC(=O)[C@H](CCCCN)NC(=O)[C@H](Cc1c[nH]c2ccccc12)NC(=O)[C@@H](N)CCCCN)C(=O)N[C@@H](CCCCN)C(=O)N[C@@H](CCCCN)C(=O)N[C@@H](CC(C)C)C(=O)N[C@H](C(=O)N[C@@H](CC(=O)O)C(=O)N[C@@H](CCCCN)C(=O)N[C@@H](Cc1ccccc1)C(=O)N[C@@H](CC(C)C)C(=O)N[C@@H](Cc1cnc[nH]1)C(=O)N[C@@H](CO)C(=O)N[C@@H](C)C(=O)N[C@@H](CCCCN)C(=O)N[C@@H](CCCCN)C(=O)N[C@@H](Cc1ccccc1)C(N)=O)[C@@H](C)O [KWKSFIKKLTDKFLHSAKKF]
- MIC (Pseudomonas aeruginosa): 10.1 µM (≈ 25 µg/mL)

Structure (SMILES): CC[C@H](C)[C@H](NC(=O)[C@H](Cc1ccccc1)NC(=O)[C@H](CO)NC(=O)[C@H](CCCCN)NC(=O)[C@H](Cc1c[nH]c2ccccc12)NC(=O)[C@@H](N)CCCCN)C(=O)N[C@@H](CCCCN)C(=O)N[C@@H](CCCCN)C(=O)N[C@@H](CC(C)C)C(=O)N[C@H](C(=O)N[C@@H](CO)C(=O)N[C@@H](CCCCN)C(=O)N[C@@H](C)C(=O)N[C@@H](CC(C)C)C(=O)N[C@@H](Cc1cnc[nH]1)C(=O)N[C@@H](CO)C(=O)N[C@@H](C)C(=O)N[C@@H](CCCCN)C(=O)N[C@@H](CCCCN)C(=O)N[C@@H](Cc1ccccc1)C(N)=O)[C@@H](C)O [KWKSFIKKLTSKALHSAKKF]
- MIC (Pseudomonas aeruginosa): 2.63 µM (≈ 6.25 µg/mL)

Structure (SMILES): CC[C@H](C)[C@H](NC(=O)[C@H](CCCCN)NC(=O)[C@H](Cc1ccccc1)NC(=O)[C@H](CC(C)C)NC(=O)[C@@H]1CCCN1C(=O)[C@H](CO)NC(=O)[C@@H]1CCCN1C(=O)[C@@H](NC(=O)[C@@H](NC(=O)[C@H](C)NC(=O)[C@@H](NC(=O)CNC(=O)[C@H](CCCCN)NC(=O)CNC(=O)[C@H](C)NC(=O)[C@H](CCCN=C(N)N)NC(=O)[C@H](CCCCN)NC(=O)[C@@H](N)C(C)C)C(C)C)C(C)C)C(C)C)C(=O)N[C@H](C(=O)N[C@H](C(=O)O)C(C)C)C(C)C [VKRAGKGVAVVPSPLFKIVV]
- MIC (Bacillus cereus): ≥ 124 µM
- MIC (Escherichia coli): > 124 µM

Structure (SMILES): CC[C@H](C)[C@H](NC(=O)[C@H](C)NC(=O)[C@H](CC(C)C)NC(=O)[C@H](CCCCN)NC(=O)[C@H](CC(C)C)NC(=O)[C@@H](NC(=O)[C@@H](NC(=O)[C@@H](N)CCCCN)[C@@H](C)CC)[C@@H](C)O)C(=O)N[C@@H](CCCCN)C(=O)N[C@@H](C)C(=O)N[C@@H](Cc1c[nH]c2ccccc12)C(=O)N[C@@H](CCCCN)C(=O)N[C@@H](CC(C)C)C(=O)N[C@@H](C)C(=O)N[C@@H](CC(C)C)C(=O)N[C@@H](CCCCN)C(=O)N[C@@H](C)C(=O)N[C@@H](C)C(N)=O [KITLKLAIKAWKLALKAA]
- MIC (Staphylococcus aureus): 5.3 µM (≈ 10.5 µg/mL)
- MIC (Pseudomonas aeruginosa): 21.2 µM (≈ 42 µg/mL)
- MIC (Escherichia coli): 5.3 µM (≈ 10.5 µg/mL)

Structure (SMILES): CC(C)C[C@H](NC(=O)[C@H](C)NC(=O)[C@@H](NC(=O)CNC(=O)[C@H](CCCCN)NC(=O)[C@@H](NC(=O)[C@@H](NC(=O)[C@H](CO)NC(=O)[C@H](CO)NC(=O)CNC(=O)[C@@H](NC(=O)[C@@H]1CCCN1C(=O)[C@H](CCCCN)NC(=O)[C@@H](NC(=O)[C@@H](N)CO)C(C)C)C(C)C)C(C)C)C(C)C)[C@@H](C)O)C(=O)N[C@H](C(=O)N[C@@H](CCCCN)C(=O)N[C@@H](Cc1ccccc1)C(=O)N[C@@H](Cc1ccccc1)C(=O)NCC(=O)O)C(C)C [SVKPVGSSVVKGTALVKFFG]
- MIC (Bacillus cereus): ≥ 128 µM
- MIC (Escherichia coli): > 128 µM

Structure (SMILES): CC(C)C[C@H](NC(=O)[C@H](Cc1ccc(O)cc1)NC(=O)[C@@H]1CCCN1C(=O)[C@@H]1CCCN1C(=O)[C@H](CCCCN)NC(=O)[C@@H]1CCCN1C(=O)[C@@H](N)C(C)C)C(=O)N1CCC[C@H]1C(=O)N[C@@H](CCCN=C(N)N)C(=O)N1CCC[C@H]1C(=O)N[C@@H](CCCN=C(N)N)C(=O)N1CCC[C@H]1C(=O)N1CCC[C@H]1C(=O)N[C@@H](CCCN=C(N)N)C(=O)N[C@@H](CCCN=C(N)N)C(=O)N[C@@H](CCCCN)C(=O)N[C@@H](Cc1ccc(O)cc1)C(=O)N[C@@H](CC(N)=O)C(=O)N[C@@H](CCCN=C(N)N)C(N)=O [VPKPPYLPRPRPPRRKYNR]
- MIC [1]: 1.68 µM (≈ 4 µg/mL)
- MIC (Escherichia coli UB1005): 0.544 µM (≈ 1.3 µg/mL)
- MIC [2]: 13.4 µM (≈ 32 µg/mL)

Structure (SMILES): CC[C@H](C)[C@H](NC(=O)CN)C(=O)NCC(=O)N[C@@H](Cc1cnc[nH]1)C(=O)N[C@@H](Cc1ccccc1)C(=O)N[C@@H](CC(C)C)C(=O)N[C@@H](Cc1cnc[nH]1)C(=O)N[C@@H](CCCCN)C(=O)N[C@H](C(=O)N[C@@H](CCCCN)C(=O)N[C@@H](CO)C(=O)N[C@@H](Cc1ccccc1)C(=O)NCC(=O)N[C@@H](CCCCN)C(=O)N[C@@H](CO)C(=O)N[C@@H](Cc1c[nH]c2ccccc12)C(=O)N[C@H](C(=O)NCC(=O)N[C@@H](CCC(=O)O)C(=O)N[C@H](C(=O)N[C@@H](CCSC)C(=O)N[C@@H](CC(N)=O)C(=O)N[C@@H](CO)C(N)=O)[C@@H](C)CC)[C@@H](C)CC)C(C)C [GIGHFLHKVKSFGKSWIGEIMNS]
- MIC (Staphylococcus aureus): 76 µM (≈ 195 µg/mL)
- MIC (Pseudomonas aeruginosa): 19 µM (≈ 48.9 µg/mL)
- MIC (Escherichia coli): 19 µM (≈ 48.9 µg/mL)

Structure (SMILES): CC[C@H](C)[C@H](NC(=O)[C@H](Cc1ccccc1)NC(=O)[C@H](CO)NC(=O)[C@H](CCCCN)NC(=O)[C@H](Cc1ccccc1)NC(=O)[C@@H](N)CCCCN)C(=O)N[C@@H](CCCCN)C(=O)N[C@@H](CCCCN)C(=O)N[C@@H](CC(C)C)C(=O)N[C@H](C(=O)N[C@@H](CO)C(=O)N[C@@H](CCCCN)C(=O)N[C@@H](Cc1ccccc1)C(=O)N[C@@H](CC(C)C)C(=O)N[C@@H](Cc1cnc[nH]1)C(=O)N[C@@H](CO)C(=O)N[C@@H](C)C(=O)N[C@@H](CCCCN)C(=O)N[C@@H](CCCCN)C(=O)N[C@@H](Cc1ccccc1)C(N)=O)[C@@H](C)O [KFKSFIKKLTSKFLHSAKKF]
- MIC (Pseudomonas aeruginosa): 5.18 µM (≈ 12.5 µg/mL)

Structure (SMILES): CC[C@H](C)[C@H](NC(=O)[C@H](Cc1ccccc1)NC(=O)[C@H](CO)NC(=O)[C@H](CCCCN)NC(=O)[C@H](Cc1c[nH]c2ccccc12)NC(=O)[C@@H](N)CCCCN)C(=O)N[C@@H](CCCCN)C(=O)N[C@@H](CCCCN)C(=O)N[C@@H](CC(C)C)C(=O)N[C@H](C(=O)N[C@@H](CO)C(=O)N[C@@H](CCCCN)C(=O)N[C@@H](Cc1ccccc1)C(=O)N[C@@H](CC(C)C)C(=O)N[C@@H](Cc1cnc[nH]1)C(=O)N[C@@H](CO)C(=O)N[C@@H](C)C(=O)N[C@@H](CC(N)=O)C(=O)N[C@@H](CCCCN)C(=O)N[C@@H](Cc1ccccc1)C(N)=O)[C@@H](C)O [KWKSFIKKLTSKFLHSANKF]
- MIC (Pseudomonas aeruginosa): 2.56 µM (≈ 6.25 µg/mL)
